In patent US8481679B2, “Immobilizing an entity in a desired orientation on a support material” (Arizona Board of Regents Acting on behalf of Arizona State …, priority 2007, dated 2013):

Columns and labels:
[1] = tested on: carbonic anhydrase; test: Corning Epic binding of carbonic anhydrase to wells pre-coated with attachment peptides; conditions: carbonic anhydrase at 1 μM; 30 and 180 minute incubation
From the text: The selected candidate peptides were applied to the wells of a Corning Epic System 384-well microplate by linking the C-terminal cysteines of the peptides to surface amines of the Epic microplate wells via the maleimide and amine moieties, respectively, of a BMPH linker (Pierce). The immobilization of the peptides to the Epic microplate wells without carbonic anhydrase was first evaluated to identify any peptides binding poorly to the well surface, and to provide a basis for computing the maximum wavelength shift theoretically obtainable with optimal binding of the carbonic anhydrase to the peptides at a concentration sufficient to saturate. […] This could reflect inadequate binding to the surface due to poor solubility of the poorly binding peptides.
Carbonic anhydrase was applied in Epic microplate wells in which the selected peptides had been pre-applied to the well surface, in groups of four replicate wells and in carbonic anhydrase concentrations ranging from 31 nM to 1 μM. Observed wavelength shifts after 30 minute incubation of the indicated concentrations of carbonic anhydrase with peptides CA4, CA8, CA9, CA10, CA11, and CA12 are shown in FIG. 7(a).

[2] = tested on: carbonic anhydrase; test: Corning Epic binding of dansylamide to carbonic anhydrase immobilized by attachment peptides; conditions: 1 μM dansylamide; six carbonic anhydrase concentrations, four replicates each; nearly all replicates
Method: Dansylamide, a known inhibitor of carbonic anhydrase, was applied to a range of concentrations (31 nM to 1 μM) of carbonic anhydrase immobilized in Epic wells by peptides CA4, CA8, CA9, CA10, CA11, and CA12. […] Wavelength shifts on the order of approximately 10 to 20 pm were observed upon application of the dansylamide to carbonic anhydrase immobilized at 1 μM concentration on peptides CA4, CA8, and CA11, confirming that the carbonic anhydrase was immobilized in an orientation that preserved the availability of the binding site (active site) and ability of the enzyme to consistently bind the inhibitor dansylamide, and confirming that the attachment peptides were able to immobilize carbonic anhydrase in the wells of an Epic plate in a manner such that binding of dansylamide to the carbonic anhydrase was readily detectable by the Epic technology.
For nearly all replicates, a shift on the order of 20 pm was observed upon application of the dansylamide.

[3] = molecular target: beta-galactosidase (Escherichia coli, UniProt P00722); conditions: 50 nM beta-galactosidase, 5 μM FDG, 0.5 hour preincubation; selected peptide at 2, 10, 50, 100 μM
Chain of beta-galactosidase (P00722 2-1024): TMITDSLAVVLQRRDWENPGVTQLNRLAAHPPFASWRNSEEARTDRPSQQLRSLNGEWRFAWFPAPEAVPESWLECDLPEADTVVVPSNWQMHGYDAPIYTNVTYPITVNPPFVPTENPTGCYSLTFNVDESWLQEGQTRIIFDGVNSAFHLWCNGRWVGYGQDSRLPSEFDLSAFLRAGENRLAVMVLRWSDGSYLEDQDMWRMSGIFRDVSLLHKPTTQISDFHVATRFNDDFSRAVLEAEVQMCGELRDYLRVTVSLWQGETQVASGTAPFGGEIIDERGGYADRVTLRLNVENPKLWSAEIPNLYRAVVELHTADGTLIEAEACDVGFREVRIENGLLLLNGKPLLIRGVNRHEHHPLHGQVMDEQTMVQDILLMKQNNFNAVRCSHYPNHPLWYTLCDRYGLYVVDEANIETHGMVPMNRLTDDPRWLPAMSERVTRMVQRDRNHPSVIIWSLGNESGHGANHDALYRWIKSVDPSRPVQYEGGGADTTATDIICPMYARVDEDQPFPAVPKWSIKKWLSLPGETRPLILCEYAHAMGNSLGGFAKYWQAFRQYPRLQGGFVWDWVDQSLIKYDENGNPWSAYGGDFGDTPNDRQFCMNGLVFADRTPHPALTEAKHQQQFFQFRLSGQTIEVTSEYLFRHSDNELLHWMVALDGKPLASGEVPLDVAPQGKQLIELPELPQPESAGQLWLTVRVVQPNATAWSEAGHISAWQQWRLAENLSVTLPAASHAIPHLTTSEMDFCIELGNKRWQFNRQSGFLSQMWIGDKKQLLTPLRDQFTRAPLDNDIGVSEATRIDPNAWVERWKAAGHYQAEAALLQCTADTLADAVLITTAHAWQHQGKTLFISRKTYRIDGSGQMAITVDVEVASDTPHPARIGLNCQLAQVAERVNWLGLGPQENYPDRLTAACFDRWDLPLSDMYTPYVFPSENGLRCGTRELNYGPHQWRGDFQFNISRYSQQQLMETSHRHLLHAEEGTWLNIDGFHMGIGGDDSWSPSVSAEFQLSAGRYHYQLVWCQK
Method: The enzyme activity of the entity beta-galactosidase when bound to the selected peptide having the sequence […] (SEQ ID NO. 2), was evaluated in solution phase by preincubating varying concentrations of the peptide with beta-galactosidase for 0.5 hour, then adding substrate FDG in solution and measuring 520 nm fluorescence upon 488 nm excitation at a series of time points.

[4] = tested on: T1, selected peptide having the sequence FRNFPVPVIFRYLNPWPGSC (SEQ ID NO. 2)
T1 sequence: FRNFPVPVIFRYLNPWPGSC

[5] = tested on: T2, comparison attachment peptide (sequence ESVPTDLPMDTMEGKNWGSC (SEQ ID NO. 14))
T2 sequence: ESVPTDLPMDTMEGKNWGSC

| Substance | wavelength shift on binding of carbonic anhydrase to peptide [1] | further results |
| --- | --- | --- |
| CA4: 20-residue candidate attachment peptide for carbonic anhydrase, C-terminal glycine-serine-cysteine; sequence only in FIG. 6A (HWHHRWWHHWKHPHHWRGSC; CA4 (Carbonic Anhydrase Peptide 4)) | wavelength shifts which persisted even after 180 minutes incubation | – |
| CA8: 20-residue candidate attachment peptide for carbonic anhydrase, C-terminal glycine-serine-cysteine; sequence only in FIG. 6A (RHWKWHWWRRHHPHHWFGSC; CA8 (Carbonic Anhydrase Peptide 8)) | wavelength shifts which persisted even after 180 minutes incubation | – |
| CA9: 20-residue candidate attachment peptide for carbonic anhydrase, C-terminal glycine-serine-cysteine; sequence only in FIG. 6A (RVFKRYKRWLHVSRYYFGSC; CA9 (Carbonic Anhydrase Peptide 9)) | wavelength shifts which persisted even after 180 minutes incubation | – |
| CA11: 20-residue candidate attachment peptide for carbonic anhydrase, C-terminal glycine-serine-cysteine; sequence only in FIG. 6A (IEDTYLRFRHYGWYNNNGSC; CA11 (Carbonic Anhydrase Peptide 11)) | wavelength shifts which persisted even after 180 minutes incubation | wavelength shift upon application of dansylamide (time course) [2]: ~20 pm |
| CA12: 20-residue candidate attachment peptide for carbonic anhydrase, C-terminal glycine-serine-cysteine; sequence only in FIG. 6A (SIGIYGHAIARPGGWYFGSC; CA12 (Carbonic Anhydrase Peptide 12)) | wavelength shifts which persisted even after 180 minutes incubation | – |
| ESVPTDLPMDTMEGKNWGSC [SEQ ID NO. 14] | – | 520 nm fluorescence intensity (beta-galactosidase activity) relative to beta-galactosidase alone [3]: slightly higher than for beta-galactosidase alone |
| FRNFPVPVIFRYLNPWPGSC [SEQ ID NO. 2] | – | 520 nm fluorescence intensity (beta-galactosidase activity) relative to beta-galactosidase alone [3]: significantly lower than that for beta-galactosidase alone |
| beta-galactosidase | – | 520 nm fluorescence intensity (FDG hydrolysis by beta-galactosidase, solution phase; peptide at 2, 10, 50 and 100 µM) [4]: at all concentrations was significantly lower than that for beta-galactosidase alone; 520 nm fluorescence intensity (FDG hydrolysis by beta-galactosidase, solution phase) [5]: slightly higher than for beta-galactosidase alone |
